Literature values in patent publication US20090018125A1, “Pharmaceutical Composition and Its Use” (Tillotts Pharma AG, priority 2004, published 2009).

Tested on: human squamous carcinoma line and multidrug-resistant and carboplatin-resistant variants
Settings: cells pre-treated with GLA

CCCCC/C=C\C/C=C\C/C=C\CCCCC(=O)O [GLA, gamma-linoleic acid]
enhancement of vincristine toxicity: up to 40% | enhancement of toxicity of carboplatin (depending on GLA concentration, human squamous carcinoma and carboplatin-resistant variant cell lines): ≥ 50%
